Patent US20180263985A1, “MODULATORS OF TOLL-LIKE RECEPTORS FOR THE TREATMENT OF HIV” (Gilead Sciences, Inc., priority 2015, published 2018)

Test system: PBMC cultures from HIV-1 infected subjects on cART
Test: Induced cytokines and chemokines in PBMC cultures, multiplexed xMAP Luminex, geometric mean values
Type: cell-based, human
Conditions: for GRO-α Fold / Granzyme B Fold / I-TAC Fold / IFN-α Fold / IFN-γ Fold / IL-1RA Fold / IL-1β Fold / IL-6 Fold / IL-8 Fold / IL-10 Fold / IL-18 Fold / IL-23 Fold / IP-10 Fold / MCP-1 Fold / MIP-1α Fold / MIP-1β Fold / MIP-3α Fold / MMP-1 Fold / TNF-α Fold / IL-12p70 Fold: day 2, 4 subjects
Procedure: To further characterize the immune modulatory effect of TLR8 agonists in cells from HIV-infected subjects, the production of secreted cytokines and chemokines was measured in PBMCs from 4 HIV-infected subjects on suppressive cART (anonymized participant IDs 180-183). PBMCs were purified, as described in Example 121, and immediately added to tissue culture plates pre-equilibrated at 37° C. with media containing DMSO (vehicle control) or with the TLR8 modulating compound Example 15 at concentrations ranging from 1.0 nM to 10.0 μM. On day 2 after treatment, cell-free culture supernatants were collected and frozen at −80 C for subsequent analysis. Frozen supernatants were thawed at room temperature, and the indicated cytokines and chemokines were quantified with a custom multiplexed xMAP Luminex® assay following the manufacturer's instructions (Thermo Fisher Scientific Inc., Grand Island, N.Y., custom-designed kit).
Data are expressed as geometric mean cytokine values (pg/ml) obtained from 4 subjects' PBMCs. Geometric mean fold-activation from three independent incubation samples for each condition. Fold (fold-activation) is calculated as a ratio of the concentration of cytokine detected in cell culture supernatants from agonist treated samples relative to DMSO treated samples

[1] = 1.0 nM to 10.0 μM, not induced >2-fold

CCCC[C@H](CO)Nc1nc(N)nc2cccnc12 [Example 15]
IFN-ω induction compared to DMSO control [1]: ≤ 2 fold | IL-2 induction compared to DMSO control [1]: ≤ 2 fold | IL-4 induction compared to DMSO control [1]: ≤ 2 fold | IL-5 induction compared to DMSO control [1]: ≤ 2 fold | IL-7 induction compared to DMSO control [1]: ≤ 2 fold | IL-15 induction compared to DMSO control [1]: ≤ 2 fold | IL-17A induction compared to DMSO control [1]: ≤ 2 fold | IL-21 induction compared to DMSO control [1]: ≤ 2 fold | IL-27 induction compared to DMSO control [1]: ≤ 2 fold | IL-29 induction compared to DMSO control [1]: ≤ 2 fold | GRO-α Fold (1 nM vs DMSO): 1 fold | Granzyme B Fold (1 nM vs DMSO): <1 fold | I-TAC Fold (1 nM vs DMSO): 2 fold | IFN-α Fold (1 nM vs DMSO): 2 fold | IFN-γ Fold (1 nM vs DMSO): 2 fold | IL-1RA Fold (1 nM vs DMSO): 3 fold | IL-1β Fold (1 nM vs DMSO): 2 fold | IL-6 Fold (1 nM vs DMSO): 1 fold | IL-8 Fold (1 nM vs DMSO): 2 fold | IL-10 Fold (1 nM vs DMSO): 1 fold | IL-18 Fold (1 nM vs DMSO): 1 fold | IL-23 Fold (1 nM vs DMSO): 2 fold | IP-10 Fold (1 nM vs DMSO): 3 fold | MCP-1 Fold (1 nM vs DMSO): 3 fold | MIP-1α Fold (1 nM vs DMSO): 5 fold | MIP-1β Fold (1 nM vs DMSO): 2 fold | MIP-3α Fold (1 nM vs DMSO): 1 fold | MMP-1 Fold (1 nM vs DMSO): 1 fold | GRO-α Fold (10 nM vs DMSO): 1 fold | Granzyme B Fold (10 nM vs DMSO): <1 fold | I-TAC Fold (10 nM vs DMSO): 1 fold | IFN-α Fold (10 nM vs DMSO): 2 fold | IFN-γ Fold (10 nM vs DMSO): 2 fold | IL-1RA Fold (10 nM vs DMSO): 1 fold | IL-1β Fold (10 nM vs DMSO): 1 fold | IL-6 Fold (10 nM vs DMSO): 1 fold | IL-8 Fold (10 nM vs DMSO): 1 fold | IL-10 Fold (10 nM vs DMSO): 1 fold | IL-18 Fold (10 nM vs DMSO): 2 fold | IL-23 Fold (10 nM vs DMSO): 1 fold | IP-10 Fold (10 nM vs DMSO): 1 fold | MCP-1 Fold (10 nM vs DMSO): 1 fold | MIP-1α Fold (10 nM vs DMSO): 1 fold | MIP-1β Fold (10 nM vs DMSO): 1 fold | MIP-3α Fold (10 nM vs DMSO): 1 fold | MMP-1 Fold (10 nM vs DMSO): 1 fold | TNF-α Fold (10 nM vs DMSO): 2 fold | GRO-α Fold (100 nM vs DMSO): 20 fold | Granzyme B Fold (100 nM vs DMSO): <1 fold | I-TAC Fold (100 nM vs DMSO): 1 fold | IFN-α Fold (100 nM vs DMSO): 1 fold | IFN-γ Fold (100 nM vs DMSO): 2 fold | IL-1RA Fold (100 nM vs DMSO): 12 fold | IL-1β Fold (100 nM vs DMSO): 45 fold | IL-6 Fold (100 nM vs DMSO): 57 fold | IL-8 Fold (100 nM vs DMSO): 8 fold | IL-10 Fold (100 nM vs DMSO): 145 fold | IL-12p70 Fold (100 nM vs DMSO): 2 fold | IL-18 Fold (100 nM vs DMSO): 1 fold | IL-23 Fold (100 nM vs DMSO): 2 fold | IP-10 Fold (100 nM vs DMSO): 1 fold | MCP-1 Fold (100 nM vs DMSO): 33 fold | MIP-1α Fold (100 nM vs DMSO): 3 fold | MIP-1β Fold (100 nM vs DMSO): 1 fold | MIP-3α Fold (100 nM vs DMSO): 1 fold | MMP-1 Fold (100 nM vs DMSO): 2 fold | TNF-α Fold (100 nM vs DMSO): 6 fold | GRO-α Fold (1000 nM vs DMSO): 18 fold | Granzyme B Fold (1000 nM vs DMSO): 4 fold | I-TAC Fold (1000 nM vs DMSO): 2 fold | IFN-α Fold (1000 nM vs DMSO): 3 fold | IFN-γ Fold (1000 nM vs DMSO): 228 fold | IL-1RA Fold (1000 nM vs DMSO): 46 fold | IL-1β Fold (1000 nM vs DMSO): 1578 fold | IL-6 Fold (1000 nM vs DMSO): 290 fold | IL-8 Fold (1000 nM vs DMSO): 5 fold | IL-10 Fold (1000 nM vs DMSO): 219 fold | IL-12p70 Fold (1000 nM vs DMSO): 175 fold | IL-18 Fold (1000 nM vs DMSO): 11 fold | IL-23 Fold (1000 nM vs DMSO): 8 fold | IP-10 Fold (1000 nM vs DMSO): 3 fold | MCP-1 Fold (1000 nM vs DMSO): 22 fold | MIP-1α Fold (1000 nM vs DMSO): 374 fold | MIP-1β Fold (1000 nM vs DMSO): 340 fold | MIP-3α Fold (1000 nM vs DMSO): 42 fold | MMP-1 Fold (1000 nM vs DMSO): 3 fold | TNF-α Fold (1000 nM vs DMSO): 1661 fold | GRO-α Fold (3000 nM vs DMSO): 18 fold | Granzyme B Fold (3000 nM vs DMSO): 4 fold | I-TAC Fold (3000 nM vs DMSO): 2 fold | IFN-α Fold (3000 nM vs DMSO): 3 fold | IFN-γ Fold (3000 nM vs DMSO): 143 fold | IL-1RA Fold (3000 nM vs DMSO): 25 fold | IL-1β Fold (3000 nM vs DMSO): 1767 fold | IL-6 Fold (3000 nM vs DMSO): 195 fold | IL-8 Fold (3000 nM vs DMSO): 4 fold | IL-10 Fold (3000 nM vs DMSO): 279 fold | IL-12p70 Fold (3000 nM vs DMSO): 127 fold | IL-18 Fold (3000 nM vs DMSO): 18 fold | IL-23 Fold (3000 nM vs DMSO): 19 fold | IP-10 Fold (3000 nM vs DMSO): 3 fold | MCP-1 Fold (3000 nM vs DMSO): 25 fold | MIP-1α Fold (3000 nM vs DMSO): 421 fold | MIP-1β Fold (3000 nM vs DMSO): 240 fold | MIP-3α Fold (3000 nM vs DMSO): 82 fold | MMP-1 Fold (3000 nM vs DMSO): 3 fold | TNF-α Fold (3000 nM vs DMSO): 3051 fold | GRO-α Fold (10000 nM vs DMSO): 19 fold | Granzyme B Fold (10000 nM vs DMSO): 3 fold | I-TAC Fold (10000 nM vs DMSO): 1 fold | IFN-α Fold (10000 nM vs DMSO): 2 fold | IFN-γ Fold (10000 nM vs DMSO): 59 fold | IL-1RA Fold (10000 nM vs DMSO): 25 fold | IL-1β Fold (10000 nM vs DMSO): 2204 fold | IL-6 Fold (10000 nM vs DMSO): 241 fold | IL-8 Fold (10000 nM vs DMSO): 4 fold | IL-10 Fold (10000 nM vs DMSO): 304 fold | IL-12p70 Fold (10000 nM vs DMSO): 38 fold | IL-18 Fold (10000 nM vs DMSO): 13 fold | IL-23 Fold (10000 nM vs DMSO): 16 fold | IP-10 Fold (10000 nM vs DMSO): 2 fold | MCP-1 Fold (10000 nM vs DMSO): 27 fold | MIP-1α Fold (10000 nM vs DMSO): 487 fold | MIP-1β Fold (10000 nM vs DMSO): 196 fold | MIP-3α Fold (10000 nM vs DMSO): 65 fold | MMP-1 Fold (10000 nM vs DMSO): 8 fold | TNF-α Fold (10000 nM vs DMSO): 1096 fold
